ChEMBL document CHEMBL1144748, “N-D-aldopentofuranosyl-N'-[p-(isoamyloxy)phenyl]-thiourea derivatives: potential anti-TB therapeutic agents” (2008)
≈ marks a conversion by molar mass, not a printed value.

These molecules were tested on Mycobacterium tuberculosis (assay: Antimycobacterial activity against Mycobacterium tuberculosis H37Rv by microplate alamar blue assay).
Format: functional

Row | SMILES | MIC [µg/mL]
1 | CC(C)CCOc1ccc(NC(=S)NC2O[C@H](CO)[C@H](O)[C@H]2O)cc1 (stereo not given in full) | 6.25 (≈ 16.9 µM)
2 | CC(C)CCOc1ccc(NC(=S)NC2O[C@H](CO)[C@@H](O)[C@@H]2O)cc1 (stereo not given in full) | 1.56 (≈ 4.21 µM)
3 | CC(C)CCOc1ccc(NC(=S)NC2O[C@H](CO)[C@@H](O)[C@H]2O)cc1 (stereo not given in full) | 3.12 (≈ 8.44 µM)
4 | CC(C)CCOc1ccc(NC(=S)NC2O[C@H](CO)[C@H](O)[C@@H]2O)cc1 (stereo not given in full) | 50 (≈ 135 µM)
5 | CC(C)CCOc1ccc(NC(=S)Nc2ccc(OCCC(C)C)cc2)cc1 [TIOCARLIDE] | 2.5 (≈ 6.24 µM)
